Here are results for 16 molecules from PubChem BioAssay AID248 (DTP/NCI, 2004).

The experiment deals with L1210 leukemia ip in BDF1 mice, survival T/C. The experiment can be described thus: NCI In Vivo Anticancer Drug Screen. Data for tumor model L1210 Leukemia (intraperitoneal) in B6D2F1 (BDF1) mice. The note with it: endpoint: mean survival time, higher = longer survival. The essentials: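 Tumor was transplanted into mice, which were then dosed with test compound or vehicle alone. Survival was recorded for each group, and the treated figure was expressed relative to the control figure.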

Setting [1] is: dose: 100.0 mg/kg/injection, schedule: Q01DX009 (ip), vehicle: Klucel (hydroxypropylcellulose) (HPC).
Where [2] appears, read: dose: 100.0 mg/kg/injection, schedule: Q01DX009 (ip), vehicle: saline with Tween-80.
Setting [3] is: dose: 100.0 mg/kg/injection, schedule: Q04DX003 (ip), vehicle: Klucel (hydroxypropylcellulose) (HPC).
[4] abbreviates: dose: 100.0 mg/kg/injection, schedule: Q04DX003 (ip), vehicle: saline with Tween-80.
The mark [5] stands for this setting: dose: 200.0 mg/kg/injection, schedule: Q01DX009 (ip), vehicle: Klucel (hydroxypropylcellulose) (HPC).
The mark [6] stands for this setting: dose: 200.0 mg/kg/injection, schedule: Q01DX009 (ip), vehicle: saline with Tween-80.
Where [7] appears, read: dose: 200.0 mg/kg/injection, schedule: Q04DX003 (ip), vehicle: Klucel (hydroxypropylcellulose) (HPC).
Where [8] appears, read: dose: 200.0 mg/kg/injection, schedule: Q04DX003 (ip), vehicle: saline with Tween-80.
The mark [9] stands for this setting: dose: 400.0 mg/kg/injection, schedule: Q01DX009 (ip), vehicle: saline with Tween-80.
Where [10] appears, read: dose: 400.0 mg/kg/injection, schedule: Q04DX003 (ip), vehicle: Klucel (hydroxypropylcellulose) (HPC).
[11] abbreviates: dose: 400.0 mg/kg/injection, schedule: Q04DX003 (ip), vehicle: saline with Tween-80.

Molecules are shown by their SMILES. Where “and” joins values, the source holds several entries; their conditions need not be identical. Equal values may be shown once. Toxic doses and inconclusive results are not listed.

`COc1cc2cc3c4cc(OC)c(OC)cc4cc[n+]3c(/C=C\c3ccccc3O)c2cc1OC`: the T/C reads like this: (dose: 50.0 mg/kg/injection, schedule: Q01DX001 (ip), vehicle: carboxymethylcellulose (CMC)) 106 % of control; (dose: 100.0 mg/kg/injection, schedule: Q01DX001 (ip), vehicle: carboxymethylcellulose (CMC)) 114 % of control; (dose: 100.0 mg/kg/injection, schedule: Q04DX002 (ip), vehicle: carboxymethylcellulose (CMC)) 100 % of control and 104 % of control; (dose: 100.0 mg/kg/injection, schedule: Q04DX003 (ip), vehicle: carboxymethylcellulose (CMC)) 109 % of control and 118 % of control; (dose: 200.0 mg/kg/injection, schedule: Q01DX001 (ip), vehicle: carboxymethylcellulose (CMC)) 119 % of control; (dose: 200.0 mg/kg/injection, schedule: Q04DX002 (ip), vehicle: carboxymethylcellulose (CMC)) 100 % of control and 103 % of control. The T/C is 110 % of control and 123 % of control (dose: 200.0 mg/kg/injection, schedule: Q04DX003 (ip), vehicle: carboxymethylcellulose (CMC)); 116 % of control (dose: 400.0 mg/kg/injection, schedule: Q01DX001 (ip), vehicle: carboxymethylcellulose (CMC)); 97 % of control and 104 % of control (dose: 400.0 mg/kg/injection, schedule: Q04DX002 (ip), vehicle: carboxymethylcellulose (CMC)); 110 % of control and 115 % of control (dose: 400.0 mg/kg/injection, schedule: Q04DX003 (ip), vehicle: carboxymethylcellulose (CMC)).
Regarding `O=C(Oc1c(Cl)cc(Cl)cc1Cl)c1ccccc1`, the T/C reads like this: under setting [1], 93 % of control; under setting [2], 90 % of control; under setting [3], 93 % of control; under setting [4], 98 % of control; under setting [5], 96 % of control; under setting [6], 91 % of control. Moreover, the T/C was 96 % of control under setting [7]; 98 % of control under setting [8]; 98 % of control (dose: 400.0 mg/kg/injection, schedule: Q01DX009 (ip), vehicle: Klucel (hydroxypropylcellulose) (HPC)); 106 % of control under setting [9]; 98 % of control under setting [10]; 96 % of control under setting [11].
`O=[N+]([O-])C(Br)(c1ccccc1)S(=O)(=O)Cc1ccccc1` (stereo not drawn): the T/C is, setting by setting: under setting [1], 95 % of control; under setting [3], 100 % of control; under setting [5], 101 % of control; under setting [7], 95 % of control; under setting [10], 102 % of control.
As for `Cc1cc2ccccc2cc1C`, the T/C was 102 % of control (dose: 25.0 mg/kg/injection, schedule: Q04DX002 (ip), vehicle: other); 119 % of control (dose: 25.0 mg/kg/injection, schedule: Q04DX002 (ip), vehicle: saline with Tween-80); 101 % of control (dose: 50.0 mg/kg/injection, schedule: Q04DX002 (ip), vehicle: saline with Tween-80); 94 % of control (dose: 100.0 mg/kg/injection, schedule: Q04DX002 (ip), vehicle: other); 111 % of control (dose: 100.0 mg/kg/injection, schedule: Q04DX002 (ip), vehicle: saline with Tween-80).
For the molecule `CC(=O)OCC1OC(n2ccc(=O)[nH]c2=O)C(OC(C)=O)C1OC(C)=O` (stereo not drawn), the T/C was 100 % of control (dose: 100.0 mg/kg/injection, schedule: Q01DX001 (ip), vehicle: saline); 103 % of control (dose: 200.0 mg/kg/injection, schedule: Q01DX001 (ip), vehicle: saline); 106 % of control (dose: 400.0 mg/kg/injection, schedule: Q01DX001 (ip), vehicle: saline).
Take `C1CCC(CCCC(CCCC2CCCC2)CCCC2CCCC2)C1`: the T/C (dose: 100.0 mg/kg/injection, schedule: Q01DX001 (ip), vehicle: saline with Tween-80) is 93 % of control; the T/C (dose: 200.0 mg/kg/injection, schedule: Q01DX001 (ip), vehicle: saline with Tween-80) was 93 % of control; the T/C (dose: 400.0 mg/kg/injection, schedule: Q01DX001 (ip), vehicle: saline with Tween-80) was 89 % of control.
Consider `CCc1c(C(OC)OC)[nH]c(=S)[nH]c1=O`, for which the T/C is, setting by setting: under setting [2], 94 % of control; under setting [4], 100 % of control; under setting [6], 100 % of control; under setting [8], 100 % of control; under setting [9], 94 % of control; under setting [11], 105 % of control.
For `COc1ccc2nc3ccccc3c(N)c2c1`, the T/C (dose: 5.0 mg/kg/injection, schedule: Q01DX001 (ip), vehicle: saline) is 100 % of control; the T/C (dose: 10.0 mg/kg/injection, schedule: Q01DX001 (ip), vehicle: saline) is 100 % of control; the T/C (dose: 20.0 mg/kg/injection, schedule: Q01DX001 (ip), vehicle: saline) is 97 % of control; the T/C (dose: 40.0 mg/kg/injection, schedule: Q01DX001 (ip), vehicle: saline) is 90 % of control.
Turning to `CC(C(O)c1cccs1)C(O)(C(F)(F)F)C(F)(F)F` (stereo not drawn), the T/C reads like this: under setting [4], 102 % of control; under setting [8], 91 % of control; under setting [11], 88 % of control.
For the molecule `CCCCCCCCCCCCCCCCS(=O)(=O)c1ccc(S(=O)(=O)N/N=c2/sc3ccc(S(=O)(=O)O)cc3n2C)cc1C(=O)O`, the T/C by setting is: (dose: 50.0 mg/kg/injection, schedule: Q01DX009 (ip), vehicle: saline with Tween-80) 97 % of control; under setting [2], 94 % of control.
Consider `CN(C)C(C#N)c1c[nH]c2ccccc12` (stereo not drawn), for which the T/C by setting is: (dose: 12.5 mg/kg/injection, schedule: Q01DX009 (ip), vehicle: Klucel (hydroxypropylcellulose) (HPC)) 87 % of control; (dose: 12.5 mg/kg/injection, schedule: Q04DX003 (ip), vehicle: Klucel (hydroxypropylcellulose) (HPC)) 97 % of control; (dose: 25.0 mg/kg/injection, schedule: Q01DX009 (ip), vehicle: Klucel (hydroxypropylcellulose) (HPC)) 97 % of control; (dose: 25.0 mg/kg/injection, schedule: Q04DX003 (ip), vehicle: Klucel (hydroxypropylcellulose) (HPC)) 97 % of control; (dose: 50.0 mg/kg/injection, schedule: Q04DX003 (ip), vehicle: Klucel (hydroxypropylcellulose) (HPC)) 94 % of control.
As to `CC(=O)N/N=C/c1ccc2c(c1)CCC2`, the T/C is 97 % of control under setting [4] and 103 % of control under setting [8].
With `CC(C)C1CCC(NC(=O)N(CCF)N=O)CC1` (stereo not drawn), the T/C was 108 % of control (dose: 9.5 mg/kg/injection, schedule: Q01DX001 (ip), vehicle: other); 165 % of control (dose: 23.0 mg/kg/injection, schedule: Q01DX001 (ip), vehicle: other); 187 % of control (dose: 30.0 mg/kg/injection, schedule: Q01DX001 (ip), vehicle: other); 209 % of control (dose: 38.0 mg/kg/injection, schedule: Q01DX001 (ip), vehicle: other); 212 % of control (dose: 46.0 mg/kg/injection, schedule: Q01DX001 (ip), vehicle: other); 312 % of control (dose: 62.0 mg/kg/injection, schedule: Q01DX001 (ip), vehicle: other).
Regarding `CCC1(c2ccccc2)CCN(C)C1` (stereo not drawn), where the note is “dose: 75.0 mg/kg/injection, schedule: Q01DX001 (ip), vehicle: carboxymethylcellulose (CMC)”, the T/C was 93 % of control.
In the case of `CN1CCC(CN2c3ccccc3Sc3ccccc32)C1` (stereo not drawn), the T/C was 95 % of control (dose: 3.12 mg/kg/injection, schedule: Q01DX009 (ip), vehicle: saline); 107 % of control (dose: 6.25 mg/kg/injection, schedule: Q01DX009 (ip), vehicle: saline); 101 % of control (dose: 12.5 mg/kg/injection, schedule: Q01DX009 (ip), vehicle: saline); 101 % of control (dose: 25.0 mg/kg/injection, schedule: Q01DX009 (ip), vehicle: saline).
Regarding `O=c1[nH]c(=O)n(C2CCCCO2)cc1F` (stereo not drawn), the T/C was 100 % of control (dose: 2.5 mg/kg/injection, schedule: Q01DX009 (ip), vehicle: saline); 104 % of control (dose: 5.0 mg/kg/injection, schedule: Q01DX009 (ip), vehicle: saline); 94 % of control (dose: 10.0 mg/kg/injection, schedule: Q01DX009 (ip), vehicle: saline); 96 % of control (dose: 20.0 mg/kg/injection, schedule: Q01DX009 (ip), vehicle: saline); 100 % of control (dose: 40.0 mg/kg/injection, schedule: Q01DX009 (ip), vehicle: saline); 96 % of control (dose: 80.0 mg/kg/injection, schedule: Q01DX009 (ip), vehicle: saline). The T/C (dose: 160.0 mg/kg/injection, schedule: Q01DX009 (ip), vehicle: saline) is 98 % of control.
